# Legend:
# Format in all cases: in vivo, SD rats
# TNF-α [1] = test: Determination of TNF-α in brain tissue homogenate, permanent cerebral ischemia model
# Method: (§1) Rats were intraperitoneally injected with 10% chloral hydrate 350 mg/kg after anesthesia and opened up at the center of the neck in accordance with the Zea Longa modified method. The right common carotid artery was separated, and the right external carotid artery branches was ligated. A small opening was made at the distal end of the external carotid artery, and a previously prepared thread was inserted through the common carotid artery and the external carotid artery bifurcation into the internal carotid artery, till the anterior end of the middle cerebral artery, with an immersed depth of 18 to 19 mm. The thread was then secured, and the wound was sutured layer by layer. After the operation, the rats were placed in a clean incubator to wake up. […] The sham operation group, the permanent cerebral ischemia model group, and the Example groups were prepared strictly according to the requirements of the cerebral ischemic reperfusion model, while in the sham operation group the thread was put only into the external carotid artery. The animals were allowed to eat and drink freely after waking up. The sham operation group, the permanent cerebral ischemia model group, and the Example groups were administered intravenously the aqueous solution of the biphenyl derivatives in PEG400 at 40 mg/kg (40 mg/kg means that 40 mg of the test compound per kg of the body weight of rats) 30 min before insertion of thread and 12 h after embolism, respectively. The sham operation group and the permanent cerebral ischemia model group were injected with the same amount of blank PEG400 aqueous solution at the same time point.
# (§2) 24 hours after the embolism, 8 rats in each group were sacrificed by decapitation, the brain was removed, rinsed with PBS (pH 7.4) at −20°i for 20 min, evenly sliced (with a thickness of 2 mm), stained in a 2% TTC solution at 37°% in the dark for 30 min, fixed in 10% formalin for 24 h, and photographs were taken to analyze the infarct volume. A mixture of femoral arterial and venous blood was drawn from another 8 rats in each group under anesthesia, placed in a low temperature centrifuge at 4° C., centrifuged at 3500 r/min for 20 min, and the supernatant was stored in a refrigerator at −20° C. ready for SOD and MDA detection. After the blood was drawn, a perfusion needle was insert through the apex to the ascending aorta, and saline at 4° C. was rapid infused until the effluent became clear, followed by 4% paraformaldehyde phosphate buffer perfusion for fixation; the brain was removed by craniotomy, and brain tissues 2 mm in front of and behind the optic chiasma were taken and fixed, dehydrated, rendered transparent, impregnated in wax, and embedded. Brain continuous coronary tissue pathological sections were consecutively cut for later use. The remaining 8 rats in each group were sacrificed, brains were removed, the ischemic brain hemispheres were immediately taken on an ice tray, and 10% brain tissue homogenate was prepared for the detection of IL-1β and TNF-α.
# (§3) Brain tissue homogenate was hypothermally centrifuged at 3000 rpm for 15 min, the supernatant was taken, and IL-1β and TNF-α were determined in strict accordance with instructions of the kits.
# SOD [2] = test: SOD determination, permanent cerebral ischemia model
# Method: as §1, §2
# (§4) SOD and MDA were determined strictly in accordance with instructions of the kit.
# TNF-α [3] = test: Determination of TNF-α in brain tissue homogenate, cerebral ischemic reperfusion MCAO model
# Method: as §1, with “group, the ischemic reperfusion group, and” for “group, the permanent cerebral ischemia model group, and”, “waking up. After 2 h, the thread was pulled out to achieve reperfusion. The sham” for “waking up. The sham”, “min before reperfusion and 12” for “min before insertion of thread and 12”, “h after reperfusion, respectively. The” for “h after embolism, respectively. The”, “and the ischemic reperfusion group were” for “and the permanent cerebral ischemia model group were”
# as §2, with “reperfusion,” for “the embolism,”, “−20° i” for “−20°i”
# as §3
# IL-1β [4] = test: Determination of IL-1β in brain tissue homogenate, cerebral ischemic reperfusion MCAO model
# Method: as §1, with “group, the ischemic reperfusion group, and” for “group, the permanent cerebral ischemia model group, and”, “waking up. After 2 h, the thread was pulled out to achieve reperfusion. The sham” for “waking up. The sham”, “min before reperfusion and 12” for “min before insertion of thread and 12”, “h after reperfusion, respectively. The” for “h after embolism, respectively. The”, “and the ischemic reperfusion group were” for “and the permanent cerebral ischemia model group were”
# as §2, with “reperfusion,” for “the embolism,”, “−20° i” for “−20°i”
# as §3
# SOD [5] = test: SOD determination, cerebral ischemic reperfusion MCAO model
# Method: as §1, with “group, the ischemic reperfusion group, and” for “group, the permanent cerebral ischemia model group, and”, “waking up. After 2 h, the thread was pulled out to achieve reperfusion. The sham” for “waking up. The sham”, “min before reperfusion and 12” for “min before insertion of thread and 12”, “h after reperfusion, respectively. The” for “h after embolism, respectively. The”, “and the ischemic reperfusion group were” for “and the permanent cerebral ischemia model group were”
# as §2, with “reperfusion,” for “the embolism,”, “−20° i” for “−20°i”
# as §4
# [6] = system: rats with cerebral ischemic reperfusion injury; test: Relative infarct volume (TTC, imageJ), cerebral ischemic reperfusion MCAO model
# Method: as §1, with “group, the ischemic reperfusion group, and” for “group, the permanent cerebral ischemia model group, and”, “waking up. After 2 h, the thread was pulled out to achieve reperfusion. The sham” for “waking up. The sham”, “min before reperfusion and 12” for “min before insertion of thread and 12”, “h after reperfusion, respectively. The” for “h after embolism, respectively. The”, “and the ischemic reperfusion group were” for “and the permanent cerebral ischemia model group were”
# as §2, with “reperfusion,” for “the embolism,”, “−20° i” for “−20°i”
# The infarct area in each brain section was analyzed and quantified by the imageJ image software, and the ratio of cerebral infarction volume in the overall brain volume was calculated.
# IL-1β [7] = test: Determination of IL-1β in brain tissue homogenate, permanent cerebral ischemia model
# Method: as §1, §2, §3
# [8] = permanent cerebral ischemia model rats, 40 mg/kg intravenously, 10% brain tissue homogenate, 24 h after the embolism
# [9] = permanent cerebral ischemia model rats, 40 mg/kg intravenously, serum, 24 h after the embolism
# [10] = ischemic reperfusion MCAO rats, 40 mg/kg intravenously, 10% brain tissue homogenate, 24 h after reperfusion
# [11] = ischemic reperfusion MCAO rats, 40 mg/kg intravenously 30 min before and 12 h after reperfusion, serum, 24 h after reperfusion
# [12] = ischemic reperfusion MCAO rats, 40 mg/kg intravenously 30 min before and 12 h after reperfusion, 24 h after reperfusion
# [13] = permanent cerebral ischemia model rats, edaravone 3 mg/kg
# [14] = ischemic reperfusion rat model, edaravone 3 mg/kg
# [15] = permanent cerebral ischemia model rats, 40 mg/kg intravenously, 10% brain tissue homogenate, 24 h after the embolism, 40 mg/kg
# [16] = ischemic reperfusion MCAO rats, 40 mg/kg intravenously, 10% brain tissue homogenate, 24 h after reperfusion, 40 mg/kg
Compound,TNF-α content (TNF-α [1]; [8]) [ng/mL],SOD ACTIVITY (U/mL) (SOD [2]; [9]),TNF-α content (TNF-α [3]; [10]) [ng/mL],IL-1β content (IL-1β [4]; [10]) [ng/mL],SOD ACTIVITY (U/mL) (SOD [5]; [11]),"Relative Brain infarction volume (%) [6, 12] [%]",IL-1β content (IL-1β [7]; [8]) [ng/mL],also measured
"CCCc1cc(-c2cc(CCC)c(O)c(CCC)c2)cc(CCC)c1O [Example 7 group, 4,4′-dihydroxy-3,3′,5,5′-tetrapropylbiphenyl]",4.26 ± 0.40,98.28 ± 3.18,4.32 ± 0.61,0.63 ± 0.08,94.51 ± 2.19,19.29 ± 3.54,0.57 ± 0.08,–
"CC(=O)OC(C)Oc1c(C(C)C)cc(-c2cc(C(C)C)c(O)c(C(C)C)c2)cc1C(C)C (centres unmarked) [Example 12 group, Ethyl 1-(4′-hydroxy-3,3′,5,5′-tetraisopropylbiphenyl-4-oxo)acetate]",5.38 ± 0.59,91.25 ± 3.84,4.95 ± 0.67,0.74 ± 0.06,92.39 ± 5.27,25.54 ± 3.29,0.75 ± 0.04,–
"CC(C)c1cc(-c2cc(C(C)C)c(OC(=O)C(N)C(C)C)c(C(C)C)c2)cc(C(C)C)c1O (centres unmarked) [Example 11 group, 4′-hydroxy-3,3′,5,5′-tetraisopropylbiphenyl-2-amino-3-methylbutyrate]",5.16 ± 0.43,95.76 ± 3.93,5.31 ± 0.51,0.71 ± 0.07,96.71 ± 4.29,23.59 ± 4.11,0.76 ± 0.04,–
"CC1=NN(c2ccccc2)C(=O)C1 [Edaravone injection, edaravone, reference compound]",–,–,–,–,–,–,–,"TNF-α content (TNF-α [1]; [13]): 5.53 ± 0.54 ng/mL; SOD ACTIVITY (U/mL) (SOD [2]; [13]): 90.62 ± 3.81 U/mL; TNF-α content (TNF-α [3]; [14]): 5.14 ± 0.44 ng/mL; IL-1β content (IL-1β [4]; [14]): 0.75 ± 0.05 ng/mL; SOD ACTIVITY (U/mL) (SOD [5]; [14]): 88.16 ± 3.99 U/mL; Relative Brain infarction volume (%) [6, 14]: 29.31 ± 3.95 %; IL-1β content (IL-1β [7]; [13]): 0.76 ± 0.04 ng/mL"
"CC(C)c1cc(-c2cc(C(C)C)c(Cl)c(C(C)C)c2)cc(C(C)C)c1O [Example 9 group, 4-chloro-4′-hydroxy-3,3′,5,5′-tetraisopropylbiphenyl]",–,–,–,–,–,–,–,"TNF-α content (TNF-α [1]; rat, in vivo, iv, 40 mg/kg): 5.17 ± 0.40 ng/mL; SOD ACTIVITY (U/mL) (SOD [2]; rat, in vivo, iv, 40 mg/kg): 93.62 ± 2.73 U/mL; TNF-α content (TNF-α [3]; rat, in vivo, iv, 40 mg/kg): 5.02 ± 0.39 ng/mL; IL-1β content (IL-1β [4]; rat, in vivo, iv, 40 mg/kg): 0.63 ± 0.07 ng/mL; SOD ACTIVITY (U/mL) (SOD [5]; rat, in vivo, iv, 40 mg/kg): 92.26 ± 2.96 U/mL; Relative Brain infarction volume (%) ([6]; rat, in vivo, iv, 40 mg/kg): 24.74 ± 6.13 %; IL-1β content (IL-1β [7]; rat, in vivo, iv, 40 mg/kg): 0.62 ± 0.12 ng/mL"
"CCCc1cc(-c2cc(CCC)c(O)c(C(C)C)c2)cc(C(C)C)c1O [Example 6 group, 4,4′-dihydroxy-3,3′-diisopropyl-5,5′-dipropylbiphenyl]",4.99 ± 0.53,97.21 ± 4.36,4.16 ± 0.44,0.64 ± 0.03,96.89 ± 3.49,19.35 ± 4.02,0.55 ± 0.05,–
CC(C)c1cc(-c2cc(C(C)C)c(OC=O)c(C(C)C)c2)cc(C(C)C)c1O [Example 10 group],5.05 ± 0.54,94.08 ± 2.83,4.68 ± 0.61,0.67 ± 0.05,95.16 ± 3.88,23.91 ± 5.44,0.66 ± 0.06,–
"CC(=O)Oc1c(C(C)C)cc(-c2cc(C(C)C)c(O)c(C(C)C)c2)cc1C(C)C [Example 1 group, 4′-hydroxy-3,3′,5,5′-tetraisopropylbiphenyl-4-acetate]",–,–,–,–,–,–,–,"TNF-α content (TNF-α [1]; [15]): 4.25 ± 0.66 ng/mL; SOD ACTIVITY (U/mL) (SOD [2]; permanent cerebral ischemia model rats, 40 mg/kg intravenously, serum, 24 h after the embolism, 40 mg/kg): 97.36 ± 4.51 U/mL; TNF-α content (TNF-α [3]; [16]): 4.11 ± 0.72 ng/mL; IL-1β content (IL-1β [4]; [16]): 0.63 ± 0.12 ng/mL; SOD ACTIVITY (U/mL) (SOD [5]; ischemic reperfusion MCAO rats, 40 mg/kg intravenously 30 min before and 12 h after reperfusion, serum, 24 h after reperfusion, 40 mg/kg): 96.78 ± 2.94 U/mL; Relative Brain infarction volume (%) ([6]; ischemic reperfusion MCAO rats, 40 mg/kg intravenously 30 min before and 12 h after reperfusion, 24 h after reperfusion, 40 mg/kg): 18.71 ± 4.69 %; IL-1β content (IL-1β [7]; [15]): 0.64 ± 0.09 ng/mL"
"CC(C)c1cc(-c2cc(C(C)C)c(OC(=O)CCC(=O)O)c(C(C)C)c2)cc(C(C)C)c1O [Example 5 group, [4-(4′-hydroxy-3,3′,5,5′-tetraisopropylbiphenyl)oxy]-4-carbonyl butyric acid]",5.23 ± 0.48,95.31 ± 4.11,5.01 ± 0.59,0.74 ± 0.09,95.01 ± 3.22,23.55 ± 5.67,0.72 ± 0.11,–
"CC(C)c1cc(-c2cc(C(C)C)c(C(=O)O)c(C(C)C)c2)cc(C(C)C)c1O [Example 8 group, 4′-hydroxy-3,3′,5,5′-tetraisopropylbiphenyl-4-carboxylic acid]",4.39 ± 0.73,96.90 ± 3.69,4.35 ± 0.46,0.64 ± 0.14,96.09 ± 3.33,25.83 ± 2.38,0.65 ± 0.08,–
"3,3′,5,5′-tetraisopropylbiphenyl-4,4′-bis(oxymethylene phosphate) [Example 3 group]",–,–,–,–,–,–,–,"TNF-α content (TNF-α [1]; rat, in vivo, iv, 40 mg/kg): 4.45 ± 0.91 ng/mL; SOD ACTIVITY (U/mL) (SOD [2]; rat, in vivo, iv, 40 mg/kg): 93.61 ± 2.13 U/mL; TNF-α content (TNF-α [3]; rat, in vivo, iv, 40 mg/kg): 4.26 ± 0.54 ng/mL; IL-1β content (IL-1β [4]; rat, in vivo, iv, 40 mg/kg): 0.66 ± 0.05 ng/mL; SOD ACTIVITY (U/mL) (SOD [5]; rat, in vivo, iv, 40 mg/kg): 93.15 ± 3.05 U/mL; Relative Brain infarction volume (%) ([6]; rat, in vivo, iv, 40 mg/kg): 25.41 ± 3.59 %; IL-1β content (IL-1β [7]; rat, in vivo, iv, 40 mg/kg): 0.67 ± 0.08 ng/mL"

# Reference: patent US10329243B2, “Biphenyl derivative and uses thereof” (XI'AN LIBANG PHARMACEUTICAL CO., LTD, priority 2015, dated 2019)
